What was measured:
[1] = molecular target: T1, Ba/F3-FGFR3-transfected cells (Homo sapiens, UniProt P22607); assay: Ba/F3-FGFR3 (minus IL3) cellular proliferation assay, Alamar Blue; assay type: cell-based
T1 construct: BAF3-FGFR3 (MIN IL3) pIC50; other: minus IL3
Summary of the method: (§1)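 Viability readout was resazurin reduction (ex 540/em 590 nm) after 4 h, following 24 h compound treatment at 37 °C of FGFR3-transfected Ba/F3 cells (20000/well, RPMI-1640/10% FBS). IL3-dependent counterscreen used identical conditions plus 10 ng/ml murine IL3.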

[2] = tested on: Ba/F3-FGFR1-transfected cells; assay: Ba/F3-FGFR1 (plus IL3) cellular proliferation assay, counterscreen with 10 ng/ml murine IL3; assay type: cell-based; conditions: plus IL3 (10 ng/ml murine IL3, counterscreen); read-out: BAF3-FGFR1 (PLUS IL3) pIC50 (converted)
Summary of the method: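 Ba/F3-FGFR1 cells (20000/well) in RPMI-1640 with 10% FBS exposed to compound for 24 h at 37° C., 5% CO2, then Alamar Blue (resazurin) added for 4 h; fluorescence read at ex 540/em 590 nm. Counterscreen run identically with 10 ng/ml murine IL3.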

[3] = molecular target: T2, Ba/F3-KDR-transfected cells (Homo sapiens, UniProt P35968); assay: Ba/F3-KDR (minus IL3) cellular proliferation assay, Alamar Blue; assay type: cell-based
T2 construct: BAF3-KDR (MIN IL3) pIC50; other: minus IL3
T2 sequence (P35968 whole entry, change not shown): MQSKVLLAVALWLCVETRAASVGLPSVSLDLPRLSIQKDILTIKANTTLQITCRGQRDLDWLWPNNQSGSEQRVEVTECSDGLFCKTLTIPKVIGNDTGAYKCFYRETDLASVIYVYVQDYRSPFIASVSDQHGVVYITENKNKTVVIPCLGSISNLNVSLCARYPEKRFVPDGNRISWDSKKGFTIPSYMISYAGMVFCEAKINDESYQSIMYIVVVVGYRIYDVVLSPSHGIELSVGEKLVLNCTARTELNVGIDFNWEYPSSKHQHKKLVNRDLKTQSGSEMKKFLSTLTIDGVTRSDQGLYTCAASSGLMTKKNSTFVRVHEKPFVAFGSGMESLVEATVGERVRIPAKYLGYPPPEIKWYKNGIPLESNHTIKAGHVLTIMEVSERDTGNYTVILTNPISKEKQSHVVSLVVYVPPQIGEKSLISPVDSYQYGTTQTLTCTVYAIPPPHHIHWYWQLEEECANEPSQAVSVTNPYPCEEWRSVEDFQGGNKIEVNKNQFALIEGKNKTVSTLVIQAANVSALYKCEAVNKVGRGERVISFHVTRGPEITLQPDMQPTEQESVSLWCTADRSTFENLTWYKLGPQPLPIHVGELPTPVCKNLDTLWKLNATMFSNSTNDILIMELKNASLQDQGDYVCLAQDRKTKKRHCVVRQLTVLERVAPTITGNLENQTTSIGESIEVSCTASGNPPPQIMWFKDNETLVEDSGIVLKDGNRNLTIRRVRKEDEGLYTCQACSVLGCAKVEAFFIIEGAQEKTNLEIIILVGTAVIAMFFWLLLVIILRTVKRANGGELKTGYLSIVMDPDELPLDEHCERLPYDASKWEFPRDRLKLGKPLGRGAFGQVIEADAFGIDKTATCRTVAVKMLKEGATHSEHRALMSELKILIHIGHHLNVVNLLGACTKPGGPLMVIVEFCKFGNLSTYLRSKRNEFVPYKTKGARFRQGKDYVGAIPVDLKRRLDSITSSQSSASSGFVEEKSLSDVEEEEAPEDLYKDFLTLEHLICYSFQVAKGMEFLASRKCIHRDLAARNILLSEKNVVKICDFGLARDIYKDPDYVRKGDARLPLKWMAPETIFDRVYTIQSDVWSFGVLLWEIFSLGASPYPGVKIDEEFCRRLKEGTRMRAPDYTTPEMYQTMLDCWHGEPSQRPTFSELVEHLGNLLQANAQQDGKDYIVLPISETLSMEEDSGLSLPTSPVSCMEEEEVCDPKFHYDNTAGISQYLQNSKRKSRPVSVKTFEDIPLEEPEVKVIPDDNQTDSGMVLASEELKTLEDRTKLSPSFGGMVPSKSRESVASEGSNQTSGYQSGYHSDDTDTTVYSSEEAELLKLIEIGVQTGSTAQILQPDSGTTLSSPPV
Summary of the method: (§2)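 20000 cells/well, RPMI-1640 + 10% FBS + 2 mM L-Gln; compound 24 h, 37° C/5% CO2; Alamar Blue 4 h; RFU ex540/em590.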

FGFR3 (h) = FGFR3 (h) (Homo sapiens, UniProt P22607); assay: FGFR3 (enzymatic assay), TR-FRET; assay type: biochemical; conditions: read-out: FGFR 3 pIC50 (converted)
Sequence of FGFR3 (h) (P22607 23-806): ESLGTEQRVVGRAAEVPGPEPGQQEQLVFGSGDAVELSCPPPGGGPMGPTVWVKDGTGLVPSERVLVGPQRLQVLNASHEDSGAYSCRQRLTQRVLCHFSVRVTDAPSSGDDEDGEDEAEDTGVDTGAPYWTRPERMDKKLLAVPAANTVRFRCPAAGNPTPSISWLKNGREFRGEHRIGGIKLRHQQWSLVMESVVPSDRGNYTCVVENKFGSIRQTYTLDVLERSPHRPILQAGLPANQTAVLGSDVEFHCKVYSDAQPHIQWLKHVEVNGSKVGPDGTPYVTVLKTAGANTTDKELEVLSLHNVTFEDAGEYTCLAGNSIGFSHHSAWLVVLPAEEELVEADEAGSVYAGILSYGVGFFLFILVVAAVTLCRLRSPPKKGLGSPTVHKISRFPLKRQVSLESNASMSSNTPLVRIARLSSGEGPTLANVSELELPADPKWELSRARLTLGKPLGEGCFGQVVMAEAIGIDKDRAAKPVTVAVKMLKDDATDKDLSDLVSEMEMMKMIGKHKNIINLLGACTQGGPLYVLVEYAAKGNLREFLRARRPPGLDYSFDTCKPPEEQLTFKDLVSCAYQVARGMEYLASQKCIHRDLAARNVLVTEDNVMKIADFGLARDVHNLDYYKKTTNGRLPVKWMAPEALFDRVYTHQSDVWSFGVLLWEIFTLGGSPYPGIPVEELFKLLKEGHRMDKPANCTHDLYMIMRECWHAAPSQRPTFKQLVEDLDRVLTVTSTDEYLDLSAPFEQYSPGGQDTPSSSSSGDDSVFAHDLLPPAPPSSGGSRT
Source text: Time-Resolved Fluorescence Resonance Energy Transfer (TR-FRET) signal (ex340 nm.

[4] = tested on: Ba/F3-FGFR3-transfected cells; assay: Ba/F3-FGFR3 (plus IL3) cellular proliferation assay, counterscreen with 10 ng/ml murine IL3; assay type: cell-based; conditions: plus IL3 (10 ng/ml murine IL3, counterscreen); read-out: BAF3-FGFR3 (PLUS IL3) pIC50 (converted)
Summary of the method: as §1

[5] = tested on: Ba/F3-KDR-transfected cells; assay: Ba/F3-KDR (plus IL3) cellular proliferation assay, counterscreen with 10 ng/ml murine IL3; assay type: cell-based; conditions: plus IL3 (10 ng/ml murine IL3, counterscreen); read-out: BAF3-KDR (PLUS IL3) pIC50 (converted)
Summary of the method: as §2

[6] = molecular target: T3, Ba/F3-FGFR1-transfected cells (Homo sapiens, UniProt P11362); assay: Ba/F3-FGFR1 (minus IL3) cellular proliferation assay, Alamar Blue; assay type: cell-based
T3 construct: BAF3-FGFR1 (MIN IL3) pIC50; other: minus IL3
T3 sequence (P11362 whole entry, change not shown): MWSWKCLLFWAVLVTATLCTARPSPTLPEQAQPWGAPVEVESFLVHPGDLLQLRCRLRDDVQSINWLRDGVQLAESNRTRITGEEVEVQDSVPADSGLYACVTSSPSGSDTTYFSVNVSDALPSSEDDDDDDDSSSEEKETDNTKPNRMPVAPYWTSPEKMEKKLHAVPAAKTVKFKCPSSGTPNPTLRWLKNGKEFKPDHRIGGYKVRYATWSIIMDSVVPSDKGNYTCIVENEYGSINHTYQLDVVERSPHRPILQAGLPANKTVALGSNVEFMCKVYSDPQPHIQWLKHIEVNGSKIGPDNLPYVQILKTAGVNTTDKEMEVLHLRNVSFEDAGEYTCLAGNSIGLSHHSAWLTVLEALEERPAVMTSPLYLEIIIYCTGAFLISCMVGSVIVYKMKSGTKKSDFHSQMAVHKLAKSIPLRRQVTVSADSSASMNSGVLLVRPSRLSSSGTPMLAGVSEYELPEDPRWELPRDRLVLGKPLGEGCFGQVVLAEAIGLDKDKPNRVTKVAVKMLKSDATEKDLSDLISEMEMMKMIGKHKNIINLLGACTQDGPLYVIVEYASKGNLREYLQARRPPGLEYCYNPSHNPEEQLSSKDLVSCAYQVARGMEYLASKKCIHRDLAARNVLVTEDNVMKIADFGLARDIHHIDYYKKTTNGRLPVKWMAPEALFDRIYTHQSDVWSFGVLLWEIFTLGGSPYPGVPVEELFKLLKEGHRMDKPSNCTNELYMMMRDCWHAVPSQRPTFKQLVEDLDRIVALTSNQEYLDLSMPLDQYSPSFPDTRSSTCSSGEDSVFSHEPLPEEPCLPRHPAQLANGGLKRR
Summary of the method: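 Viability was measured by resazurin reduction (fluorescence, 540 nm excitation/590 nm emission) after a 4 h Alamar Blue incubation. This followed 24 h of compound treatment at 37 °C, 5% CO2, of 20000 FGFR1-transfected Ba/F3 cells per well in 10% FBS RPMI-1640.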

KDR (h) = KDR (h) (Homo sapiens, UniProt P35968); assay: KDR (VEGFR2) (enzymatic assay), TR-FRET; assay type: biochemical; conditions: read-out: VEGFR 2 (KDR) pIC50 (converted)
Sequence of KDR (h) (P35968 20-1356): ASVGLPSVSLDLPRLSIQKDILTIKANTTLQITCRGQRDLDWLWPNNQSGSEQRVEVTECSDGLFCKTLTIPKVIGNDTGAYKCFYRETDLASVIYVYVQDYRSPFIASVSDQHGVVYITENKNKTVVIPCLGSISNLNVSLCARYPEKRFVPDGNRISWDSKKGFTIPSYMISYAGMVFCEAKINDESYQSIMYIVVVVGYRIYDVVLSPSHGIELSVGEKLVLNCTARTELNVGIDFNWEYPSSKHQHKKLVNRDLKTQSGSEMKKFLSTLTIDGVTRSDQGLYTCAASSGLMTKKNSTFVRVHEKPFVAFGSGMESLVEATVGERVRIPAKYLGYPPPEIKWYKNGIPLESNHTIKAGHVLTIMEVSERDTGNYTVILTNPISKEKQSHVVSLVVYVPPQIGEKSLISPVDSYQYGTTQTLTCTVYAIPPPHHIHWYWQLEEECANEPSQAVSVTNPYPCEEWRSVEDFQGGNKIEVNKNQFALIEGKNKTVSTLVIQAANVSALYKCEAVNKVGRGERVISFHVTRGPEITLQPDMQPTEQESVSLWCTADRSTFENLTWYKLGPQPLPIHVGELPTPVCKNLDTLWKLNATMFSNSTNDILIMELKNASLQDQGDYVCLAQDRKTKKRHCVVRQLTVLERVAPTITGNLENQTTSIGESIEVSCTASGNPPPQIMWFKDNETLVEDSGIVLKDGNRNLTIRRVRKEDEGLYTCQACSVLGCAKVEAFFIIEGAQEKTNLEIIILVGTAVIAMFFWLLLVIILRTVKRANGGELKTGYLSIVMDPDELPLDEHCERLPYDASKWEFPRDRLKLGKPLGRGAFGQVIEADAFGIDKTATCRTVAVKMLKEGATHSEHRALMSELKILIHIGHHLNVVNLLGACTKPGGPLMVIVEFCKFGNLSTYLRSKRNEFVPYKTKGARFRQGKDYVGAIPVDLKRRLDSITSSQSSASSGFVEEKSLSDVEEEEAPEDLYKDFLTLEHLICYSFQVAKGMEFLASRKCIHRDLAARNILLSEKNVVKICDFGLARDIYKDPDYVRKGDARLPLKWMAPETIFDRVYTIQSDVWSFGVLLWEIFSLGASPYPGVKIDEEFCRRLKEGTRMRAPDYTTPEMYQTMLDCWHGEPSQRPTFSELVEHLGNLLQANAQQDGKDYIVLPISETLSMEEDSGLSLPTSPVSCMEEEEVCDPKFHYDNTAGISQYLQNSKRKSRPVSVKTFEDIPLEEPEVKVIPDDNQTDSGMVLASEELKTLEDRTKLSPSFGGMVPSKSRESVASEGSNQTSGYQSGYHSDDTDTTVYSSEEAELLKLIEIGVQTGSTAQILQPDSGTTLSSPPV
Summary of the method: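 Read-out is TR-FRET (ex 340 nm, em 620 and 655 nm) in RFU, after an EDTA stop carrying Eu-labelled anti-phosphotyrosine and SA-XL-665 (60 min, RT). The preceding kinase reaction ran 120 min at RT with 150 ng/ml enzyme, 500 nM Btn-Flt3 and 3 μM ATP.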

T1 sequence (P22607 whole entry, change not shown): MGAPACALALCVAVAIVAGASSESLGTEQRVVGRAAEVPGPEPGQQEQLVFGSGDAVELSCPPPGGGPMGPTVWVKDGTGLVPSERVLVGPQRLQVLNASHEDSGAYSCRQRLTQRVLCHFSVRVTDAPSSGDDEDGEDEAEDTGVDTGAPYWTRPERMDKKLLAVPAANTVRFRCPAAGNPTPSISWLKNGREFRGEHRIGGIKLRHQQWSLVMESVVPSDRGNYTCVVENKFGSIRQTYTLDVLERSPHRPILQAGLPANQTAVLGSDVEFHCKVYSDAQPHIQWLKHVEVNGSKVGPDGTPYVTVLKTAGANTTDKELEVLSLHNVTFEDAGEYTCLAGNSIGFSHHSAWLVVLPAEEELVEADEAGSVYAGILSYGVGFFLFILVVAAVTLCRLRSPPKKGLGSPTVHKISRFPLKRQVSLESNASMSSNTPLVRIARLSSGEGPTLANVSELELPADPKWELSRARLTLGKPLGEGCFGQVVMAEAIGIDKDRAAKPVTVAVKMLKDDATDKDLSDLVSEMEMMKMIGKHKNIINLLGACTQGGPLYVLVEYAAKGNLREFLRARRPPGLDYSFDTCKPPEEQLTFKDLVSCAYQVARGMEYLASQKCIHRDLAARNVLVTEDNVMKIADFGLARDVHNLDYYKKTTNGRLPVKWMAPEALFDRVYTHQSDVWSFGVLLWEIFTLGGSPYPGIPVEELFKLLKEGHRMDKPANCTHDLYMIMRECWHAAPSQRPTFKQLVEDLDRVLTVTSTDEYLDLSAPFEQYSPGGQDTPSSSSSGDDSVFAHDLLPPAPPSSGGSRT

SMILES	BAF3-FGFR3 (MIN IL3) pIC50 [1]	IC50 [2]	BAF3-KDR (MIN IL3) pIC50 [3]	IC50 (FGFR3 (h))	IC50 [4]	IC50 [5]	BAF3-FGFR1 (MIN IL3) pIC50 [6]	IC50 (KDR (h))
COc1cc(OC)c(F)c(N(CCN)c2ccc3ncc(-c4cnn(C)c4)nc3n2)c1 [Compound 168]	6.76	> 10000 nM	5.57	3.16 nM	> 10000 nM	> 10000 nM	7.48	15.8 nM
COc1cc(OC)cc(N(Cc2ncn(CCO)n2)c2ccc3ncc(-c4cnn(C)c4)nc3n2)c1 [Compound 205]	6.20	> 10000 nM	5.45	14.5 nM	> 10000 nM	> 10000 nM	6.31	38.9 nM
COc1cc(OC)c(F)c(N(CC2CCC(=O)N2CCO)c2ccc3ncc(-c4cnn(C)c4)nc3n2)c1 (single isomer, unassigned) [Compound 218]	~7.64	> 10000 nM	5.64	4.17 nM	> 10000 nM	> 10000 nM	7.51	42.7 nM
COc1cc(OC)c(F)c(N(CCN2CCCC2=O)c2ccc3ncc(-c4cnn(C)c4)nc3n2)c1 [Compound 157]	~6.66	> 10000 nM	5.30	5.62 nM	> 10000 nM	> 10000 nM	6.17	46.8 nM
COc1cc(OC)c(F)c(/N=c2\ccc3ncc(-c4cnn(C)c4)nc3n2CC2CCOC2)c1F (centres unmarked) [Compound 154]	7.59	> 10000 nM	6.43	0.676 nM	> 10000 nM	> 10000 nM	7.71	1.62 nM
COc1cc(OC)cc(N(Cc2nn[nH]n2)c2ccc3ncc(-c4cnn(C)c4)nc3n2)c1 [Compound 197]	<5	> 10000 nM	<5	14.5 nM	> 10000 nM	> 10000 nM	<5	145 nM
COc1cc(OC)cc(N(CCN2CCOCC2)c2ccc3ncc(-c4cnn(C)c4)nc3n2)c1 [Compound 146]	~7.14	> 10000 nM	5.28	4.9 nM	> 10000 nM	> 10000 nM	6.87	41.7 nM
COC(=O)CN(c1ccc2ncc(-c3cnn(C)c3)nc2n1)c1cc(OC)cc(OC)c1F [Compound 214]	~7.18	> 10000 nM	5.31	2.4 nM	> 10000 nM	> 10000 nM	7.08	145 nM
COc1cc(OC)c(F)c(N(CC(=O)c2cnn(C)c2)c2ccc3ncc(-c4cnn(C)c4)nc3n2)c1 [Compound 225]	6.29	> 10000 nM	5.17	7.76 nM	> 10000 nM	> 10000 nM	6.41	200 nM
COc1cc(/N=c2\ccc3ncc(-c4cnn(C)c4)nc3n2Cc2c(C)noc2C)c(F)c(OC)c1 [Compound 179]	<5.52	> 3020 nM	<5.52	1.26 nM	> 3020 nM	> 3020 nM	<5.52	12.3 nM
COc1cc(OC)cc(N(Cc2ncc[nH]2)c2ccc3ncc(-c4ccncc4)nc3n2)c1 [Compound 202]	~7.67	> 10000 nM	5.24	1.62 nM	> 10000 nM	> 10000 nM	7.47	61.7 nM
COc1cc(OC)c(F)c(N(Cc2ncc[nH]2)c2ccc3ncc(-c4cn[nH]c4)nc3n2)c1 [Compound 190]	~8.15	> 10000 nM	6.46	1.23 nM	> 10000 nM	> 10000 nM	8.19	7.94 nM
CCOCc1c[nH]c(CN(c2ccc3ncc(-c4cnn(C)c4)nc3n2)c2cc(OC)cc(OC)c2F)n1 [Compound 206]	~8.12	> 10000 nM	5.84	2.51 nM	> 10000 nM	> 10000 nM	7.89	27.5 nM
COc1cc(OC)c(F)c(N(CC2CCC(=O)N2C)c2ccc3ncc(-c4cnn(C)c4)nc3n2)c1 (centres unmarked) [Compound 159]	6.30	> 10000 nM	5.17	5.89 nM	> 10000 nM	> 10000 nM	6.65	83.2 nM
COc1cc(/N=c2\ccc3ncc(-c4cnn(C)c4)nc3n2CCN)c(F)c(OC)c1 [Compound 167]	6.72	> 10000 nM	5.63	2.09 nM	> 10000 nM	> 10000 nM	6.74	16.2 nM
COc1cc(OC)cc(N(Cc2n[nH]c(=O)o2)c2ccc3ncc(-c4cnn(C)c4)nc3n2)c1 [Compound 229]	6.05	> 10000 nM	<5	4.07 nM	> 10000 nM	> 10000 nM	5.97	182 nM
COc1cc(/N=c2\ccc3ncc(-c4cnn(C)c4)nc3n2CC2CCC(=O)N2C)c(F)c(OC)c1 (centres unmarked) [Compound 158]	7.20	> 10000 nM	6.16	1.29 nM	> 10000 nM	> 10000 nM	7.18	6.61 nM
COc1cc(/N=c2\ccc3ncc(-c4cnn(C)c4)nc3n2Cc2cc(C)on2)c(F)c(OC)c1 [Compound 181]	8.05	> 10000 nM	5.97	1.55 nM	> 10000 nM	> 10000 nM	7.76	6.76 nM
COc1cc(OC)cc(N(Cc2noc(C)n2)c2ccc3ncc(-c4cnn(C)c4)nc3n2)c1 [Compound 186]	~7.11	> 10000 nM	5.20	2.69 nM	> 10000 nM	> 10000 nM	7.03	45.7 nM
COc1cc(OC)cc(N(CC2CCCOC2)c2ccc3ncc(-c4cnn(C)c4)nc3n2)c1 (centres unmarked) [Compound 166]	6.65	> 10000 nM	5.07	2.63 nM	> 10000 nM	> 10000 nM	6.72	55 nM
COc1cc(OC)c(F)c(N(Cc2c(C)noc2C)c2ccc3ncc(-c4cnn(C)c4)nc3n2)c1 [Compound 178]	6.29	> 10000 nM	<5	3.55 nM	> 10000 nM	> 10000 nM	6.20	61.7 nM
COc1cc(OC)cc(N(Cc2ncc[nH]2)c2ccc3ncc(-c4ccccc4)nc3n2)c1 [Compound 152]	8.08	> 10000 nM	5.56	1.15 nM	> 10000 nM	> 10000 nM	7.96	15.1 nM

Source: patent publication US9309242B2, “Substituted pyrido[2,3-b]pyrazines as FGFR kinase inhibitors” (priority 2011, dated 2016)
